Assay results reported in US20250304582A1, “Bicyclic Ureas As Kinase Inhibitors” (Incyte Corporation, priority 2024, published 2025).

Legend:
[1] = molecular target: T1, catalytic domain (JH1, amino acids 808-1132) of human JAK2 (Homo sapiens, UniProt O60674); experiment: JAK2 HTRF Enzyme Activity Assay; type: biochemical; settings: ATP (30 μM or 1 mM; not stated which for the table), 60 minutes at 25° C.; read-out: JAK2 HTRF (Ex. D)
T1 construct: catalytic domain (JH1, amino acids 808-1132) of human JAK2; His (N); purchased BPS Bioscience 40450; host or cells: baculovirus expression system
T1 sequence (O60674 808-1132): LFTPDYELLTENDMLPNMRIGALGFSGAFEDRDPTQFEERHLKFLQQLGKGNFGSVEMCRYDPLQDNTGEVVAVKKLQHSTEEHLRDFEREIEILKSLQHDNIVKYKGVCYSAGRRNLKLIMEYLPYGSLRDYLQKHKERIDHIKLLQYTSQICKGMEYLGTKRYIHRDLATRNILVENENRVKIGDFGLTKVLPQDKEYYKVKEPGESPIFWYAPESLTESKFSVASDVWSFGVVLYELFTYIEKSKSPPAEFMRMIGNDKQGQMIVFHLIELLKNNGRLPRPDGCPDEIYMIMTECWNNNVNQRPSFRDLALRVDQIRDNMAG
Description: Example D. JAK2 HTRF Enzyme Activity Assay
JAK2 enzyme activity assays utilize catalytic domain (JH1, amino acids 808-1132) of human JAK2 expressed as N-terminal His-tagged protein in a baculovirus expression system (BPS Bioscience, Catalog #40450). The assays was conducted in black 384-well polystyrene plates in a final reaction volume of 20 μL. JAK2 (0.015 nM) was incubated with compounds (100 nL serially diluted in DMSO) in the presence of ATP (30 μM or 1 mM) and 500 nM Biotin-labeled EQEDEPEGDYFEWLE (SEQ ID NO.: 1) peptide (BioSource International, custom synthesis) in assay buffer (50 mM Tris, pH=7.5, 10 mM MgCl2, 0.01% Brij-35, 0.1% BSA, 1 mM EGTA, 5% Glycerol and 5 mM DTT) for 60 minutes at 25° C. The reactions were stopped by the addition of 10 μL of detection buffer (50 mM Tris, pH 7.8, 0.5 mg/mL BSA, 150 mM NaCl), supplemented with EDTA, LANCE Eu-W1024 anti-phosphotyrosine (PY20), (PerkinElmer, Catalog #AD0067) and Streptavidin SureLight APC (PerkinElmer Catalog #CR130-100), for a final concentration of 15 mM, 1.5 nM and 75 nM, respectively. HTRF signals were read after 30 minutes incubation at room temperature on a PHERAstar FS plate reader (BMG LABTECH). Data was analyzed with TDBS Xlfit and GraphPad Prism 5.0 software using a four parameter dose response curve to determine IC50 for each compound.

[2] = molecular target: T2, catalytic domain (JH1, amino acids 826-1132) of human JAK2 (Homo sapiens, UniProt O60674); experiment: JAK2 LanthaScreen JH1 Binding Assay; settings: 50 nM fluorescent JAK2-JH1 tracer, 2 hours at 25° C.; read-out: JH1 BIND (EX. A)
T2 construct: catalytic domain (JH1, amino acids 826-1132) of human JAK2; FLAG (N); purchased Carna Biosciences 08-445-20N; host or cells: baculovirus expression system
T2 sequence (O60674 826-1132): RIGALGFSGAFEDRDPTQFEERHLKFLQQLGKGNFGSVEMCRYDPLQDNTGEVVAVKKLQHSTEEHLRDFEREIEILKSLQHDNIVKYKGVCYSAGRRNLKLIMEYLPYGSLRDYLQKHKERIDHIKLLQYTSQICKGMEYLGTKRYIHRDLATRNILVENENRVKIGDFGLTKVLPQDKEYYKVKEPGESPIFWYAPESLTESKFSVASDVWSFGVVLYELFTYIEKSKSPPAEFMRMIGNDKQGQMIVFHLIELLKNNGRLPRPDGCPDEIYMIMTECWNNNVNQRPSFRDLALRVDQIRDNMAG
Description: Example A. JAK2 LanthaScreen JH1 Binding Assay
JAK2 JH1 binding assay utilizes catalytic domain (JH1, amino acids 826-1132) of human JAK2 expressed as N-terminal FLAG-tagged, biotinylated protein in a baculovirus expression system (Carna Biosciences, Product #08-445-20N). The assay was conducted in black 384-well polystyrene plates in a final reaction volume of 20 μL. JAK2 JH1 (1.5 nM) was incubated with compounds (100 nL serially diluted in DMSO) in the presence of 50 nM fluorescent JAK2-JH1 tracer and 0.5 nM Streptavidin-Tb cryptate (Cisbio Part #610SATLB) in assay buffer (50 mM Tris, pH=7.5, 10 mM MgCl2, 0.01% Brij-35, 0.1% BSA, 1 mM EGTA, 5% Glycerol and 5 mM DTT). Non-specific binding was accessed in the presence of 2 mM ATP. After incubation for 2 hours at 25° C., LanthaScreen signals were read on a PHERAstar FS plate reader (BMG LABTECH). Data was analyzed with IDBS Xlfit and GraphPad Prism 5.0 software using a four parameter dose response curve to determine IC50 for each compound.

[3] = molecular target: T3, pseudo-kinase domain (JH2, amino-acids 536-812) of human V617F mutant JAK2 (Homo sapiens, UniProt O60674, F794H/V617F/W659A/W777A); experiment: JAK2 LanthaScreen JH2-V617F Binding Assay; settings: 50 nM Fluorescent JAK2-JH2 Tracer, 1 hour at 25° C.; read-out: JH2 BIND V617F (Ex. C)
T3 construct: JH2, amino-acids 536-812 with 3 surface mutations W659A, W777A, F794H; His (C); purchased BPS Bioscience 79498; host or cells: baculovirus expression system
T3 sequence (O60674 536-812 V617F/W659A/W777A/F794H): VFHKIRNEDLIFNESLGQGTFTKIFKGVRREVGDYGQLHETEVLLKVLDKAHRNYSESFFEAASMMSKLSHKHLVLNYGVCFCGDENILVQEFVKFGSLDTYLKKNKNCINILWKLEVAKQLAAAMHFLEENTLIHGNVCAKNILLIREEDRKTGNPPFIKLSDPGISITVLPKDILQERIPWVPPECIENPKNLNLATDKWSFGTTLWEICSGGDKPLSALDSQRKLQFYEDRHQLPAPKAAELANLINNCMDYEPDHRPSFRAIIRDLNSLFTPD
Description: Example C. JAK2 LanthaScreen JH2-V617F Binding Assay
(§1) JAK2 JH2-V617F binding assay utilizes pseudo-kinase domain (JH2, amino-acids 536-812 with 3 surface mutations W659A, W777A, F794H) of human V617F mutant JAK2 expressed as C-terminal His-Avi-tagged, biotinylated protein in a baculovirus expression system (BPS Bioscience, Catalog #79498). The assay was conducted in black 384-well polystyrene plates in a final reaction volume of 20 μL. JAK2 JH2-V617F (0.26 nM) was incubated with compounds (100 nL serially diluted in DMSO) in the presence of 50 nM Fluorescent JAK2-JH2 Tracer (MedChem Express Catalog #HY-102055) and 0.25 nM Streptavidin-Tb cryptate (Cisbio Part #610SATLB) in assay buffer (50 mM Tris, pH=7.5, 10 mM MgCl2, 0.01% Brij-35, 0.1% BSA, 1 mM EGTA, 5% Glycerol and 5 mM DTT). Non-specific binding was accessed in the presence of 2 mM ATP. After incubation for 1 hour at 25° C., LanthaScreen signals were read on a PHERAstar FS plate reader (BMG LABTECH). Data was analyzed with IDBS Xlfit and GraphPad Prism 5.0 software using a four parameter dose response curve to determine IC50 for each compound.

[4] = molecular target: T4, pseudo-kinase domain (JH2, amino-acids 536-812) of human Wild Type JAK2 (Homo sapiens, UniProt O60674, F794H/W659A/W777A); experiment: JAK2 LanthaScreen JH2-WT Binding Assay; settings: 50 nM Fluorescent JAK2-JH2 Tracer, 1 hour at 25° C.; read-out: JH2 BIND WT (EX. B)
T4 construct: JH2, amino-acids 536-812 with 3 surface mutations W659A, W777A, F794H; His (C); purchased BPS Bioscience 79463; host or cells: baculovirus expression system
T4 sequence (O60674 536-812 W659A/W777A/F794H): as the sequence (O60674 536-812 V617F/W659A/W777A/F794H) above, with F82V counted along it
Description: Example B. JAK2 LanthaScreen JH2-WT Binding Assay
as §1, with “JH2-WT” for “JH2-V617F”, “Wild Type” for “V617F mutant”, “#79463).” for “#79498).”, “JH2-WT (0.145” for “JH2-V617F (0.26”

Compound	IC50 [1] [nM]	IC50 [2] [nM]	IC50 [3] [nM]	IC50 [4] [nM]
[2H]C([2H])([2H])n1c(=O)n([C@@H]2CC[C@@H](NC(=O)OC)C2)c2cc(Nc3cc(C(C)(C)O)c4cccc(C(F)(F)F)c4n3)ncc21 [Example 9, Methyl ((1R,3R)-3-(6-((4-(2-hydroxypropan-2-yl)-8-(trifluoromethyl)quinolin-2-yl)amino)-3-(methyl-d3)-2-oxo-2,3-dihydro-1H-imidazo[4,5-c]pyridin-1-yl)cyclopentyl)carbamate]	> 1000	> 1000	≤ 10	≤ 10
[2H]C([2H])([2H])n1c(=O)n([C@@H]2CC[C@@H](NC(=O)OC)C2)c2cc(Nc3cc(NS(C)(=O)=O)c4cccc(C(F)(F)F)c4n3)ncc21 [Example 23, Methyl ((1R,3R)-3-(3-(methyl-d3)-6-((4-(methylsulfonamido)-8-(trifluoromethyl)quinolin-2-yl)amino)-2-oxo-2,3-dihydro-1H-imidazo[4,5-c]pyridin-1-yl)cyclopentyl)carbamate]	> 1000	> 1000	10 to 100	10 to 100
[2H]C([2H])([2H])n1c(=O)n([C@@H]2CC[C@@H](NC(=O)OC)C2)c2cc(Nc3cc(CO)c4cccc(C(F)(F)F)c4n3)ncc21 [Example 1, Methyl ((1R,3R)-3-(6-((4-(hydroxymethyl)-8-(trifluoromethyl)quinolin-2-yl)amino)-3-(methyl-d3)-2-oxo-2,3-dihydro-1H-imidazo[4,5-c]pyridin-1-yl)cyclopentyl)carbamate]	> 1000	> 1000	≤ 10	≤ 10
[2H]C([2H])([2H])n1c(=O)n([C@@H]2CC[C@@H](NC(=O)OC)C2)c2cc(Nc3cc(S(C)(=N)=O)c4cccc(C(F)(F)F)c4n3)ncc21 (stereo partly drawn) [Example 7, methyl ((1R,3R)-3-(3-(methyl-d3)-6-((4-(S-methylsulfonimidoyl)-8-(trifluoromethyl)quinolin-2-yl)amino)-2-oxo-2,3-dihydro-1H-imidazo[4,5-c]pyridin-1-yl)cyclopentyl)carbamate]	> 1000	> 1000	10 to 100	≤ 10
COC(=O)N[C@@H]1CC[C@@H](n2c(=O)n(C)c3cnc(Nc4ccc5ncc(C#N)n5n4)cc32)C1 [Example 42, Methyl ((1R,3R)-3-(6-((3-cyanoimidazo[1,2-b]pyridazin-6-yl)amino)-3-methyl-2-oxo-2,3-dihydro-1H-imidazo[4,5-c]pyridin-1-yl)cyclopentyl)carbamate]	> 1000	> 1000	≤ 10	≤ 10
[2H]C([2H])([2H])n1c(=O)n([C@@H]2CC[C@@H](NC(=O)OC)C2)c2cc(Nc3cc(C(C)(C)OC)c4cccc(C(F)(F)F)c4n3)ncc21 [Example 17, Methyl ((1R,3R)-3-(6-((4-(2-methoxypropan-2-yl)-8-(trifluoromethyl)quinolin-2-yl)amino)-3-(methyl-d3)-2-oxo-2,3-dihydro-1H-imidazo[4,5-c]pyridin-1-yl)cyclopentyl)carbamate]	> 1000	> 1000	≤ 10	≤ 10
[2H]C([2H])([2H])n1c(=O)n([C@@H]2CC[C@@H](NC(=O)OC)C2)c2cc(Nc3cc([S+](C)[O-])c4cccc(C(F)(F)F)c4n3)ncc21 (stereo partly drawn) [Example 5, Methyl ((1R,3R)-3-(3-(methyl-d3)-6-((4-(methylsulfinyl)-8-(trifluoromethyl)quinolin-2-yl)amino)-2-oxo-2,3-dihydro-1H-imidazo[4,5-c]pyridin-1-yl)cyclopentyl)carbamate]	> 1000	> 1000	≤ 10	≤ 10
COC(=O)N[C@@H]1CC[C@@H](n2c(=O)n(C)c3cnc(Nc4ccc5cccc(C(F)(F)F)c5n4)cc32)C1 [Example 41, Methyl ((1R,3R)-3-(3-methyl-2-oxo-6-((8-(trifluoromethyl)quinolin-2-yl)amino)-2,3-dihydro-1H-imidazo[4,5-c]pyridin-1-yl)cyclopentyl)carbamate]	> 1000	> 1000	≤ 10	≤ 10
[2H]C([2H])([2H])n1c(=O)n([C@H]2C[C@H](NC(=O)OC)C2)c2cc(Nc3cc(C(C)(C)O)c4cccc(C(F)(F)F)c4n3)ncc21 [Example 15, Methyl ((trans)-3-(6-((4-(2-hydroxypropan-2-yl)-8-(trifluoromethyl)quinolin-2-yl)amino)-3-(methyl-d3)-2-oxo-2,3-dihydro-1H-imidazo[4,5-c]pyridin-1-yl)cyclobutyl)carbamate]	100 to 500	100 to 500	≤ 10	≤ 10
COC(=O)N[C@@H]1CC[C@@H](n2c(=O)n(C)c3cnc(Nc4ccc5cc(Cl)cc(C(F)(F)F)c5n4)cc32)C1 [Example 25, Methyl ((1R,3R)-3-(6-((6-chloro-8-(trifluoromethyl)quinolin-2-yl)amino)-3-methyl-2-oxo-2,3-dihydro-1H-imidazo[4,5-c]pyridin-1-yl)cyclopentyl)carbamate]	> 1000	> 1000	≤ 10	≤ 10
